{"source": "paper PMC5231396", "about": "(ACS chemical neuroscience, 2016)", "target": "T1, M1 muscarinic acetylcholine receptor (Mus musculus, UniProt P12657)", "T1 sequence (P12657 1-460)": "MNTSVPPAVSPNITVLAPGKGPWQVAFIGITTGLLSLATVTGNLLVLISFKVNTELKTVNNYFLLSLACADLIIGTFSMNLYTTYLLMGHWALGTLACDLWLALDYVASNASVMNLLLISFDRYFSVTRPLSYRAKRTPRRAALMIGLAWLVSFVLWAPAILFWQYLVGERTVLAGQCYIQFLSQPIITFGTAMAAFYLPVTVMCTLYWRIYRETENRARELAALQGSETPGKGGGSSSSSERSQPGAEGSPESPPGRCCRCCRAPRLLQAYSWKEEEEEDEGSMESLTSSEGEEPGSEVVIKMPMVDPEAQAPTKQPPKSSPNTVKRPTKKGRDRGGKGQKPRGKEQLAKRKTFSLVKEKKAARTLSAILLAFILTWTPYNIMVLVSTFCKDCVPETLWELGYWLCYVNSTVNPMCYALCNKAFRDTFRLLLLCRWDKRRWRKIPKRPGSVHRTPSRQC", "assay": "previously published M1 PAM compared side-by-side with VU6004256", "type": "cell-based"}
{"molecule": "Cn1cc(-c2ccc(CN3Cc4ncccc4C3=O)c(F)c2)cn1", "note": "[compound 1, VU0453595]", "values": [{"measurement": "EC50", "result": 3.22, "unit": "µM"}]}
